Laboratory results from patent US7125877B2, “Benzimidazole derivatives” (Banyu Pharmaceutical Co., Ltd., priority 2002, dated 2006).
Where a name gives a salt, the structure may show the parent alone.

Columns and labels:
nociceptin receptor ORL1 [1] = molecular target: T1, nociceptin receptor ORL1 (Homo sapiens, UniProt P41146); assay: Nociceptin receptor binding inhibition assay ([125I]Tyr14-Nociceptin, SPA, CHO/ORL1 membranes); details: 50 pM [125I]Tyr14-Nociceptin, CHO/ORL1 membrane, 37° C. for 60 minutes; read-out: IC50 value, nociceptin receptor binding inhibition action
T1 construct: expressed in transfected cells
T1 sequence (P41146 whole entry): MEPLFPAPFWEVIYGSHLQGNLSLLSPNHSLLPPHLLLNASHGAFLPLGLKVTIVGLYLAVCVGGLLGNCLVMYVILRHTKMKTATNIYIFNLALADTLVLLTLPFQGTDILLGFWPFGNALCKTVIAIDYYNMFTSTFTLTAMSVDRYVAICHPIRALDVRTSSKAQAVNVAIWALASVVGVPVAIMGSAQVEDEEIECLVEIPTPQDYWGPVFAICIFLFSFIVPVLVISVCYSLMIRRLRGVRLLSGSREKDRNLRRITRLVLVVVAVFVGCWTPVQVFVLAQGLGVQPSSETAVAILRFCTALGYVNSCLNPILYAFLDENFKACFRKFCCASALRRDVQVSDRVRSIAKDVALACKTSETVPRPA
Protocol: Pharmacological Test Example 1 (Nociceptin Receptor Binding Inhibition Assay)
cDNA which codes a human nociceptin receptor gene was cloned into an expression vector pCR3 (Invitrogen) to prepare pCR3/ORL1. Next, pCR3/ORL1 was transfected in CHO cells using a transfectam (Nippongene) to obtain a stable expression strain (CHO/ORL1 cells) having resistance against 1 mg/ml G418. Membrane fractions were prepared from this stable expression strain to carry out a receptor binding assay.
The membrane of 11 μg, 50 pM [^125I] Tyr^14-Nociceptin (Amersham Pharmacia), 1 mg Wheatgerm agglutinin SPA beads (PVT based; Amersham Pharmacia) and each test compound were suspended in an NC buffer (50 mM Hepes, 10 mM sodium chloride, 1 mM magnesium chloride, 2.5 mM calcium chloride, 0.1% BSA, 0.025% bacitracin, pH 7.4) and incubated at 37° C. for 60 minutes, and then the radioactivity was determined. The binding activity to the nociceptin receptor was indicated by the 50% inhibition concentration (IC50 value) of [^125I]Tyr^14-Nociceptin binding by each compound of the present invention.

nociceptin receptor ORL1 [2] = molecular target: T1, nociceptin receptor ORL1; assay: Antagonism against nociceptin-elicited G protein activation (GTPγ[35S] binding, CHO/ORL1 membranes); type: biochemical; details: 50 nM nociceptin, 200 pM GTPγ[35S], CHO/ORL1 membrane, 25° C. for 150 minutes
Protocol: Pharmacological Test Example 2 (Antagonism Against Nociceptin-elicited G Protein Activation)
CHO cells which stably represented a nociceptin receptor ORL1 were used to investigate the action of each tested compound against nociceptin-elicited G protein activation. A membrane prepared from the CHO/ORL1 cells, 50 nM nociceptin, 200 pM GTPγ[^35S] (NEN), 1.5 mg Wheatgerm agglutinin SPA beads (Amersham Pharmacia) and each of the tested compounds were mixed in a GDP buffer (20 mM Hepes, 100 mM sodium chloride, 10 mM magnesium chloride, 1 mM EDTA, 5 μM GDP, pH 7.4) and incubated at 25° C. for 150 minutes, and then the radioactivity was determined. The antagonism against nociceptin-elicited G protein activation was shown by the 50% inhibition concentration (IC50 value) of each tested compound against GTPγ[^35S] binding.

Row | SMILES | IC50 (nociceptin receptor ORL1 [1]) | IC50 (nociceptin receptor ORL1 [2])
1 | CCN1CCN(c2cc3[nH]c(C(=O)[C@]4(C)CC[C@@H](NC(=O)OC)CC4)nc3cc2Cl)C(C)C1 (single isomer, unassigned) [Example 1(2S*), 5-chloro-6-[4-ethyl-(2S*)-2-methylpiperazin-1-yl]-2-[(1,4-trans)-4-methoxycarbonylamino-1-methylcyclohexylcarbonyl]benzimidazole] | 0.51 nM | 0.82 nM
2 | COC(=O)N[C@H]1CC[C@](C)(C(=O)c2nc3cc(Cl)c(N4CCN(CCO)CC4C)cc3[nH]2)CC1 (single isomer, unassigned) [Example 6(2S*), 5-chloro-6-[4-(2-hydroxyethyl)-(2S*)-2-methylpiperazin-1-yl]-2-[(1,4-trans)-4-methoxycarbonylamino-1-methylcyclohexylcarbonyl]benzimidazole-fumaric acid salt] | 0.41 nM | 0.92 nM
3 | CCN1CCN(c2cc3[nH]c(C(=O)[C@]4(CC)CC[C@@H](NC(=O)OC)CC4)nc3cc2Cl)C(C)C1 (single isomer, unassigned) [Example 15(2S*), 5-chloro-2-[(1,4-trans)-1-ethyl-4-(methoxycarbonylamino)-cyclohexylcarbonyl]-6-[4-ethyl-(2S*)-2-methylpiperazin-1-yl]benzimidazole-fumaric acid salt] | 0.19 nM | 0.42 nM
4 | CCN1CCN(c2cc3[nH]c(C(=O)N(C)C4CCCCC4)nc3cc2Cl)C(C)C1 (stereo not drawn) [Example 39(2S*)] | 29 nM | –
5 | CCN1CCN(c2cc3[nH]c(C(=O)[C@]4(C)CC[C@@](C)(O)CC4)nc3cc2Cl)CC1 [Example 51, 5-chloro-2-[(1,4-trans)-1,4-dimethyl-4-hydroxycyclohexylcarbonyl]-6-(4-ethylpiperazin-1-yl) benzimidazole] | 1.4 nM | 0.65 nM
6 | COC[C@]1(C(=O)c2nc3cc(C)c(N4CCN5CCC[C@H]5C4)cc3[nH]2)CC[C@](C)(O)CC1 [Example 53, 6-[(S)-1,4-ziazabicyclo[4.3.0]nonan-4-yl]-2-[(1,4-trans)-4-hydroxy-1-methoxymethyl-4-methylcyclohexylcarbonyl]-5-methylbenzimidazole] | 0.55 nM | 1 nM

The next lines start with the values.

Row | IC50 (nociceptin receptor ORL1 [1]) | IC50 (nociceptin receptor ORL1 [2]) | SMILES
7 | 0.2 nM | 0.63 nM | CCN1CCN(c2cc3[nH]c(C(=O)[C@]4(C)CC[C@@H](NC(=O)OC)CC4)nc3cc2C)C(C)C1 (single isomer, unassigned) [Example 2(2S*), 6-[4-ethyl-(2S*)-2-methylpiperazin-1-yl]-2-[(1,4-trans)-4-methoxycarbonylamino-1-methylcyclohexylcarbonyl]-5-methylbenzimidazole]
8 | 0.99 nM | 0.63 nM | COC(=O)N[C@H]1CC[C@](C)(C(=O)c2nc3cc(C)c(N4CCN(CCO)CC4C)cc3[nH]2)CC1 (single isomer, unassigned) [Example 11(2S*), 6-[4-(2-hydroxyethyl)-(2S*)-2-methylpiperazin-1-yl]-2-[(1,4-trans)-4-methoxycarbonylamino-1-methylcyclohexylcarbonyl]-5-methylbenzimidazole-fumaric acid salt]
9 | 2.1 nM | 2.8 nM | CCN1CCN(c2cc3[nH]c(C(=O)[C@]4(C)CC[C@@H](O)CC4)nc3cc2Cl)C(C)C1 (single isomer, unassigned) [Example 24(2S*), 5-chloro-6-[4-ethyl-(2S*)-2-methylpiperazin-yl]-2-[(1,4-trans)-4-hydroxy-1-methylcyclohexylcarbonyl]benzimidazole]
10 | 1.9 nM | 1.5 nM | CCN1CCN(c2cc3[nH]c(C(=O)C4(C)CCN(C(C)=O)CC4)nc3cc2C)C(C)C1 (single isomer, unassigned) [Example 27(2S*), 2-(1-acetyl-4-methylpiperidinyl-4-carbonyl)-6-[4-ethyl-(2S*)-2-methylpiperazin-1-yl]-5-methylbenzimidazole]
11 | 0.22 nM | 0.36 nM | CCN1CCN(c2cc3[nH]c(C(=O)[C@]4(CC)CC[C@@H](NC(=O)OC)CC4)nc3cc2C)C(C)C1 (single isomer, unassigned) [Example 47(2S*), 2-[(1,4-trans)-1-ethyl-4-(methoxycarbonylamino)-cyclohexylcarbonyl]-6-[4-ethyl-(2S*)-2-methylpiperazin-1-yl]-5-methylbenzimidazole-fumaric acid salt]
